In patent publication US20200179392A1, “Idelalisib for Treating Proliferative Vitreoretinopathy and Abnormal Intraocular Neovascularization” (priority 2016, published 2020):

Key:
[1] = tested on: phosphorylation of Akt at serine 473; experiment: Western blot of Akt phosphorylation (S473) in RPEM cells stimulated with vitreous or PDGF; assay type: cell-based, human
Procedure: 1B. After growth factor-deprivation, the RPEM cells were pretreated with idelalisib at indicated concentrations, or its vehicle for 30 minutes, and then treated with normal rabbit vitreous diluted (1:2) in DMEM (RV), V: vehicle (0.1% dimethyl sulfoxide) or PDGF-B (10 ng/ml). After the treatment for 30 minutes at 37° C., their lysates were subjected to a western blot analysis using the indicated antibodies. This is representative of three independent experiments. Cells grown to 90% confluence in wells of 24-well plates were serum starved for 24 hours, and then treated with appropriated agents. After two washes with ice-cold phosphate buffered saline (PBS), the cells were lysed in 1× sample buffer diluted with protein extraction buffer (10 mM Tris-HCl, pH 7.4; 5 mM […] (EDTA), 50 mM NaCl, 50 mM NaF, 1% Triton X-100, 20 μg/ml aprotinin, 2 mM Na3VO4, 1 mM phenylmethylsulfonyl fluoride] from 5× sample buffer [25 mM EDTA, 10% sodium dodecyl sulfate (SDS), 500 mM dithiothreitol (DTT), 50% sucrose, 500 mM Tris.HCl (pH=6.8), 0.5% bromophenol blue). The samples were boiled for 5 minutes and then centrifuged for 5 minutes at 13,000×g, 4° C. […] Signal intensity was determined by densitometry using NIH imageJ software^24, 44, 50.

RPEM cells [2] = experiment: Cell proliferation assay, RPEM cells with vitreous; assay type: cell-based, human; conditions: idelalisib 5 μM, 48 hours
Procedure: 3A. RPEM cells were seeded into a 24-well plate at a density of 3×10^4 cells/well. After 8 hours the cells had attached, the medium was changed to either 0.5 ml DMEM (−) or RV supplemented with idelalisib (5 μM) or its vehicle. After treated for 48 hours, the cells were counted with a hemocytometer under a light microscope. RPEM cells were seeded into wells of a 24-well plate at a density of 3×10^4 cells/well in DMEM/F12 with 10% FBS. Following attachment, the cells were treated with DMEM/F12 or RV (1:2 dilution in DMEM/F12) with or without idelalisib (5 μM). On day 3, the cells were trypsin detached from the plates and counted in a hemocytometer. Each experimental condition was assayed in duplicate, and at least three independent experiments were performed^24, 44.

RPEM cells [3] = experiment: Cell apoptosis (survival) assay, RPEM cells with vitreous; assay type: cell-based, human; conditions: idelalisib 5 μM, 48 hours, Annexin V/PI FACS
Procedure: 3B. After RPEM cells reached 80% confluence in 60-mm dishes, the cultured medium was changed to either 3 ml DMEM/F12 or RV supplemented with idelalisib (5 μM) or its vehicle (0.1% dimethyl sulfoxide: DMSO). 48 hours later, the detached cells were washed with phosphate-buffer saline (PBS) and stained with fluorescein isothiocyanate (FITC)-conjugated Annexin V and propidium iodide (PI) and then analyzed by fluorescence-activated cell sorting (FACS). A representative raw data of three experiments below the bar graphs is shown. RPEM cells were seeded into 6 cm-dishes at a density of 2×10^5 cells per dish in DMEM/F12+10% FBS. Following attachment, the cells were treated with DMEM/F12 or RV (1:2 dilution in DMEM/F12) with or without idelalisib ([…]). On day 3, the cells were stained with fluorescein isothiocyanate (FITC)-conjugated annexin V and propidium iodide (PI) following the manufacturer's instructions (BD Biosciences, Palo Alto, Calif.). The cells were analyzed by flow cytometry in a Coulter Beckman XL instrument. At least three independent experiments were performed^24, 44.

HRECs = experiment: VEGF-induced tube formation assay in HRECs; assay type: cell-based, human; conditions: idelalisib 5 μM
Procedure: A tube formation assay was performed as previously described^63. A collagen gel mixture was added to a 96-well plate (70 μl/well), which was then incubated for about 60 minutes at 37° C. to let the collagen gel polymerize. After polymerization, 4.0×10^4 HRECs were seeded in each well with their cultured medium maintained at a 37° C. incubator. This day was considered day 1. On day 2, the medium was removed and 150 μl of the gel mixture was added to each well supplemented with VEGF, or VEGF plus idelalisib (5 μM). On days 3, three different fields per well were randomly chosen and photographed using the EVOS FL Auto microscope. The results in FIG. 10B are representative of three independent experiments^61, 64, 65. Each bar graph indicates mean±standard deviation of three independent experiments. “*” denotes significant difference between the two compared groups. P<0.05 using an unpaired t-test.

[4] = tested on: angiogenesis (neovascularization) in retina; experiment: Mouse model of oxygen-induced retinopathy (OIR); assay type: in vivo; conditions: P12 mice, intravitreal 1 μl of 50 μM, retinas IB4 stained on P17
Procedure: FIGS. 11A-B. Idelalisib inhibits angiogenesis in a mouse model of oxygen-induced retinopathy (OIR). Litters of P12 mice that had been exposed to 75% oxygen for five days were injected intravitreally with 1 μl ilidelalisib (50 μM) or its vehicle (DMSO). A, On P17, whole-mount-retinas were stained with IB4. B, Analysis of neovascularization (NV) areas from the IB4 stained retinas (n=6). The bar graph data are mean±SD of three retinas. “*” indicates significant difference using an unpaired t test. p<0.05.
C57BL/6J litters on postnatal day (P) 7 were exposed to 75% oxygen until P12 in the oxygen chamber (Biospherix). Oxygen concentration was monitored daily using an oxygen sensor (Advanced Instruments, GPR-20F)^58, 59. On P12, the pups were anesthetized by intraperitoneal injection of 50 mg/kg ketamine hydrochloride and 10 mg/kg xylazine. During intravitreal injections, eyelids of P12 pups were separated by incision. Pupils were dilated using a drop of 1% tropicamide and the eyes were treated with topical proparacaine anesthesia. Intravitreous injections were performed under a microsurgical microscope using glass pipettes with a diameter of approximately 150 μm at the tip after the eye were punctured at the upper nasal limbus using a BD insulin syringe with the BD ultra-fine needle. One μl of idelalisib or DMSO was injected. […]

For CC[C@H](Nc1ncnc2[nH]cnc12)c1nc2cccc(F)c2c(=O)n1-c1ccccc1 [idelalisib], the “inhibition of vitreous-stimulated phosphorylation of Akt at serine 473” value ([1]; idelalisib 1.0 μM, 30 min pretreatment, rabbit vitreous 1:2 for 30 min) was “completely inhibited”, the “inhibition of PDGF-stimulated activation of Akt” value ([1]; idelalisib 10.0 μM (selective dose for PI3Kδ), PDGF-B 10 ng/ml) was “neither inhibited” and the “effect on vitreous-induced proliferation of RPEM cells” value (RPEM cells [2]) was “prevented”. For the same compound, the “effect on vitreous-induced survival of RPEM cells” value (RPEM cells [3]) was “prevented”, the “effect on VEGF-stimulated tube formation of HRECs” value (HRECs) was “completely blocked” and the “effect on angiogenesis in oxygen-induced retinopathy” value [4] was “abrogated”.
